Measurements taken from article PMC10709440, “High-throughput ligand profile characterization in novel cell lines expressing seven heterologous insect olfactory receptors for the detection of volatile plant biomarkers” (Scientific Reports, 2023).
Where two headings read alike, the source gives them in different places.

Tests used:
Drosophila OR10a = target: T1, Drosophila OR10a (Drosophila melanogaster, UniProt Q9VYZ1); experiment: Calcium ion fluorescence (GCaMP6) assay, OR10a stable HEK293 cell line; assay type: cell-based; parameters: key to DF norm AVERAGE OR10a: VOC ∆F divided by the plate's mean ∆F response to 50 µM VUAA1
T1 construct: expressed in transfected cells
T1 sequence (Q9VYZ1 1-406): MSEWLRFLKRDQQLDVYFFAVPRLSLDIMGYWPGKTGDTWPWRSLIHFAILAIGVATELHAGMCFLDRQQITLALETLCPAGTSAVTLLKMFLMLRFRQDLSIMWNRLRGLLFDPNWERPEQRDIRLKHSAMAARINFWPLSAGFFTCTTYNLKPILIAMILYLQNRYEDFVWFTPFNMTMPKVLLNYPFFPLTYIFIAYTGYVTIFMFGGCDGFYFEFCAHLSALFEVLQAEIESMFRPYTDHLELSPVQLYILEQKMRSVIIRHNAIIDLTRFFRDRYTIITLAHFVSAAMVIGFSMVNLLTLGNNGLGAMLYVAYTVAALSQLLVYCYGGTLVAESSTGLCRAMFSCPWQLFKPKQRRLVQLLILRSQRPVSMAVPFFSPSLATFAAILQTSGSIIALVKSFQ
T1 sequence (Q9VNB5 1-486 partner): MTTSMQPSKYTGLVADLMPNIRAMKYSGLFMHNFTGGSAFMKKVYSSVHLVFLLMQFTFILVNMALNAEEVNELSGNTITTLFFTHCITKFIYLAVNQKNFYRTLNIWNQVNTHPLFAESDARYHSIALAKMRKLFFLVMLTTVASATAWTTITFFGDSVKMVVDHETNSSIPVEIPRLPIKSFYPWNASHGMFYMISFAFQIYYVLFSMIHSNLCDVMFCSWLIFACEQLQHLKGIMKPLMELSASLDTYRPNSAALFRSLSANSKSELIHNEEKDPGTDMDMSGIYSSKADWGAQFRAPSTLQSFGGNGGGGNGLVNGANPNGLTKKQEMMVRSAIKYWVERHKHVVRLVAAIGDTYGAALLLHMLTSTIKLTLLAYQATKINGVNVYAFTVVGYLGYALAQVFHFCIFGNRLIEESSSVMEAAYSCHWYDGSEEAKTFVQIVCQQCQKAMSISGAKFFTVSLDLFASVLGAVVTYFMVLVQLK
Protocol: (§1) These VUAA1 normalized ∆F values were used to compare the different receptors and ligands.
(§2) The concentration-dependent effect of the reference ligands on their cognate cell lines was examined in more detail. Twelve different ligand concentrations were measured on each cell line in an overall 0.01 μM to 100 μM concentration range with 5 repetitions with three technical replicates each time.
(§3) Twelve thousand to 18,000 cells were plated into each well of a black wall, transparent bottom 384-well microplate (Greiner) 48 h or 72 h before the measurements and were simultaneously treated with 1 μg/mL doxycycline. […] The plate has 24 columns, thus we could record responses in up to eight different cell lines in each plate. On the day of the experiment, the growth medium was replaced with 20 µL assay buffer/well (140 mM NaCl, 5 mM KCl, 2 mM CaCl2, 1 mM MgCl2, 5 mM HEPES-Na, 20 mM glucose, pH 7.3, 340 mOsm). […] Baseline fluorescence (F0) was recorded for 5 s, after which 7 µL VOC buffer (140 mM NaCl, 5 mM KCl, 2 mM CaCl2, 1 mM MgCl2, 5 mM HEPES-Na, 31 mM glucose, 0.1% DMSO, pH 7.3, 340 mOsm) was injected into each well in one row and the fluorescence response was recorded for an additional 30 s, at a rate of one read/sec. VOC solutions (VOC buffer with 4× concentration of the final measured VOC concentration, 9 µL/well was injected) were measured on the same wells in a second round with the same protocol. Each individual concentration of a specific VOC sample was recorded in three wells for the same cell line on the same microplate. The raw data were exported in xls file format, F0 and FMAX values, and the fluorescence intensity changes (∆F) were calculated in Excel (Microsoft) (Supplementary file Data summary.xlsx) using the following equation: ΔF=FMAX-F0/F0 (see also Fig. 1C). On each plate, we recorded the response of each cell line to 50 µM VUAA1. The average of these ∆F values of each cell line were used to calculate the VUAA1-normalized values for the rest of the plate, by dividing VOC response ∆F values by the average VUAA1 response ∆F value of the corresponding OR cell line. Each VOC-OR combination was measured three times as technical replicates. […] The average of these replicates were used as one ∆F and VUAA1-normalized ∆F in the following analysis.
(§4) In the next rows we tested the reference VOCs (or other VOCs known to activate the corresponding cell lines), in order to test if all cell lines are responsive. The remaining rows were used to test VOCs with unknown effect.
(§5) The recorded FMAX, F0, ∆F, VUAA1-normalized ∆F values, as well as the OR name, the name of the tested sample, and the final concentration for each well were copied into supplementary file Data summary.xlsx, that was used to summarize all the plates recorded. Here, the averages of the measurements were calculated for each receptor-VOC-concentration combination.

Drosophila OR85b = target: T2, Drosophila OR85b (Drosophila melanogaster, UniProt Q9VHQ7); experiment: Calcium ion fluorescence (GCaMP6) assay, OR85b stable HEK293 cell line; assay type: cell-based; parameters: key to DF norm AVERAGE OR85b: VOC ∆F divided by the plate's mean ∆F response to 50 µM VUAA1; settings: for Average response: VUAA1-normalized response, mean of biological replicates
T2 construct: expressed in transfected cells
T2 sequence (Q9VHQ7 1-390): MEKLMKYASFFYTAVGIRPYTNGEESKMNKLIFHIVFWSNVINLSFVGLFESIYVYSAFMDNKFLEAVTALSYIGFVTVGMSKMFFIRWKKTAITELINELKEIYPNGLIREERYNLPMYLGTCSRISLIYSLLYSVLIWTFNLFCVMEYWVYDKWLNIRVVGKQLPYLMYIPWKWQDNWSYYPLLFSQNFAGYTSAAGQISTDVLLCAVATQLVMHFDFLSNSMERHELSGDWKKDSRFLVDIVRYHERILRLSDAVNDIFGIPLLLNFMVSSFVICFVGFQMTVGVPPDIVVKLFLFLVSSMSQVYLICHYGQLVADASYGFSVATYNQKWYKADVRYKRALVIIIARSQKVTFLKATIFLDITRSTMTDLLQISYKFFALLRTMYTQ
T2 sequence (Q9VNB5 1-486 partner): T1 sequence (Q9VNB5 1-486 partner)
Protocol: as §1, §2, §3, §4, §5

[1] = HEK293, 1 μM VOC, 50 μM VUAA1 = 1, responses not exceeding 0.05 considered 0, read-out: OR10a Average response (VUAA1-normalized)
[2] = HEK293, 10 μM VOC, 50 μM VUAA1 = 1, responses not exceeding 0.05 considered 0, read-out: OR10a Average response (VUAA1-normalized)
[3] = HEK293, 100 μM VOC, 50 μM VUAA1 = 1, responses not exceeding 0.05 considered 0, read-out: OR10a Average response (VUAA1-normalized)
[4] = ligand concentration 1 (unit not given), 0.05 threshold, values below shown as 0
[5] = ligand concentration 10 (unit not given), 0.05 threshold, values below shown as 0
[6] = ligand concentration 100 (unit not given), 0.05 threshold, values below shown as 0
[7] = HEK293, read-out: OR85b Average response (VUAA1-normalized)
[8] = concentration 10, normalized fluorescence change, values below 0.05 threshold given as 0
[9] = concentration 1, normalized fluorescence change, values below 0.05 threshold given as 0
[10] = concentration 100, normalized fluorescence change, values below 0.05 threshold given as 0
[11] = HEK293, read-out: OR10a response (VUAA1-normalized response), VOC concentration 1 μM
[12] = HEK293, read-out: OR10a response (VUAA1-normalized response), VOC concentration 10 μM
[13] = HEK293, read-out: OR10a response (VUAA1-normalized response), VOC concentration 100 μM
[14] = HEK293, read-out: OR85b response (VUAA1-normalized response)
[15] = HEK293, read-out: OR10a Average response (VUAA1-normalized)
[16] = HEK293, read-out: OR10a response (VUAA1-normalized response)
[17] = ligand concentration 1 (unit not given), threshold 0.05, below shown as 0
[18] = ligand concentration 10 (unit not given), threshold 0.05, below shown as 0
[19] = ligand concentration 100 (unit not given), threshold 0.05, below shown as 0

Compound | activation at 1 µM (Drosophila OR10a; [1]) [%] | activation at 10 µM (Drosophila OR10a; [2]) [%] | activation at 100 µM (Drosophila OR10a; [3]) [%] | Average response (Drosophila OR85b; OR85b cell line, cc. 1 µM) | Average response (Drosophila OR85b; OR85b cell line, cc. 10 µM) | Average response (Drosophila OR85b; OR85b cell line, cc. 100 µM) | DF norm AVERAGE OR10a (Drosophila OR10a) | DF norm AVERAGE OR85b (Drosophila OR85b; [9]) | DF norm AVERAGE OR85b (Drosophila OR85b; [8]) | DF norm AVERAGE OR85b (Drosophila OR85b; [10]) | activation at 1 µM (Drosophila OR10a; [11]) [%] | activation at 10 µM (Drosophila OR10a; [12]) [%] | activation at 100 µM (Drosophila OR10a; [13]) [%] | activation at 1 µM (Drosophila OR85b; [14]) [%] | activation at 10 µM (Drosophila OR85b; [14]) [%] | activation at 100 µM (Drosophila OR85b; [14]) [%] | DF norm AVERAGE OR10a (Drosophila OR10a; [17]) | DF norm AVERAGE OR10a (Drosophila OR10a; [18]) | DF norm AVERAGE OR10a (Drosophila OR10a; [19]) | DF norm AVERAGE OR85b (Drosophila OR85b; [17]) | also measured
CCCCCCCCCCC [undecane] | 0 | 0 | 0 | 0.0284 | 0.05 | 0.11 |  |  |  |  |  |  |  |  |  |  |  |  |  |  | OR10a response (VUAA1-normalized) at 1 μM (Drosophila OR10a; OR10a cell line, VOC concentration 1 μM): 0.00; OR10a response (VUAA1-normalized) at 10 μM (Drosophila OR10a; OR10a cell line, VOC concentration 10 μM): 0.00; OR10a response (VUAA1-normalized) at 100 μM (Drosophila OR10a; OR10a cell line, VOC concentration 100 μM): 0.00; DF norm AVERAGE OR10a (Drosophila OR10a; [4]): 0; DF norm AVERAGE OR10a (Drosophila OR10a; [5]): 0; DF norm AVERAGE OR10a (Drosophila OR10a; [6]): 0; activation at 1 µM (Drosophila OR85b; [7]): 3%; activation at 10 µM (Drosophila OR85b; [7]): 5%; activation at 100 µM (Drosophila OR85b; [7]): 11%; OR85b response (VUAA1-normalized) at 1 μM (Drosophila OR85b; OR85b cell line, VOC concentration 1 μM): 0.00; OR85b response (VUAA1-normalized) at 10 μM (Drosophila OR85b; OR85b cell line, VOC concentration 10 μM): 0.05; OR85b response (VUAA1-normalized) at 100 μM (Drosophila OR85b; OR85b cell line, VOC concentration 100 μM): 0.11; DF norm AVERAGE OR85b (Drosophila OR85b; [4]): 0; DF norm AVERAGE OR85b (Drosophila OR85b; [5]): 0.05165; DF norm AVERAGE OR85b (Drosophila OR85b; [6]): 0.1131
(-)-alpha-cedrene |  |  |  | 0.00 | 0.0466 | 0.0948 | 0 | 0 | 0 | 0.09481 |  |  |  |  |  |  |  |  |  |  | OR10a Average response (VUAA1-normalized) (Drosophila OR10a; 1 μM VOC, 50 μM VUAA1 = 1, responses not exceeding 0.05 considered 0): 0.02; OR10a Average response (VUAA1-normalized) (Drosophila OR10a; 10 μM VOC, 50 μM VUAA1 = 1, responses not exceeding 0.05 considered 0): 0.06; OR10a Average response (VUAA1-normalized) (Drosophila OR10a; 100 μM VOC, 50 μM VUAA1 = 1, responses not exceeding 0.05 considered 0): 0.00; OR10a response (VUAA1-normalized response) (Drosophila OR10a; VOC concentration 1 μM): 0.00; OR10a response (VUAA1-normalized response) (Drosophila OR10a; VOC concentration 10 μM): 0.06; OR10a response (VUAA1-normalized response) (Drosophila OR10a; VOC concentration 100 μM): 0.00; DF norm AVERAGE OR10a (Drosophila OR10a; [8]): 0.05923; OR85b response (VUAA1-normalized response) (Drosophila OR85b; VOC concentration 1 μM): 0.00; OR85b response (VUAA1-normalized response) (Drosophila OR85b; VOC concentration 10 μM): 0.00; OR85b response (VUAA1-normalized response) (Drosophila OR85b; VOC concentration 100 μM): 0.0948
CCCCCO [1-pentanol] | 0 | 0 | 0 | 0.00 | 0.00 | 0.00 | 0 | 0 | 0 | 0 | 0 | 0 | 0 | 0 | 0 | 0 |  |  |  |  | 
CCc1ccccc1 [ethylbenzene] |  |  |  | 0.00719 | 0.00 | 0.00 |  |  |  |  |  |  |  | 0 | 0 | 0 | 0.1713 | 0 | 0.05742 | 0 | activation at 1 µM (Drosophila OR10a; [15]): 17%; activation at 10 µM (Drosophila OR10a; [15]): 3.3%; activation at 100 µM (Drosophila OR10a; [15]): 6%; activation at 1 µM (Drosophila OR10a; [16]): 17%; activation at 10 µM (Drosophila OR10a; [16]): 0%; activation at 100 µM (Drosophila OR10a; [16]): 6%; DF norm AVERAGE OR85b (Drosophila OR85b; [18]): 0; DF norm AVERAGE OR85b (Drosophila OR85b; [19]): 0
CCCC(=O)OCC [ethyl butyrate] | 0 | 2.38 | 2.76 | 0.00 | 0.0253 | 0.0224 |  |  |  |  | 0 | 0 | 0 | 0 | 0 | 0 | 0 | 0 | 0 | 0 | DF norm AVERAGE OR85b (Drosophila OR85b; [18]): 0; DF norm AVERAGE OR85b (Drosophila OR85b; [19]): 0
CCCCCCCO [1-heptanol] | 1.56 | 6.57 | 0 | 0.00 | 0.00 | 0.00 |  | 0 | 0 | 0 | 0 | 6.57 | 0 | 0 | 0 | 0 |  |  |  |  | 
